± gives the expanded uncertainty stated by the source.
Assay: mn = molality of the nth substance listed, in mol/kg
Details: 101 kPa, Liquid, Vibrating tube method

CCC[n+]1ccn(CCO)c1.[Cl-] [1-(2-hydroxylethyl)-3-propylimidazolium chloride] + O
mass density [kg/m3]
Details | 293.15 K | 298.15 K | 303.15 K
m1 = 0.01 | 998.4 ± 0.05 | 997.35 ± 0.05 | 995.88 ± 0.05
m1 = 0.0505 | 999.68 ± 0.05 | 998.47 ± 0.05 | 997.08 ± 0.05
m1 = 0.102 | 1001.01 ± 0.05 | 999.89 ± 0.05 | 998.4 ± 0.05
m1 = 0.208 | 1004.05 ± 0.05 | 1002.76 ± 0.05 | 1001.15 ± 0.05
m1 = 0.5535 | 1012.98 ± 0.06 | 1011.56 ± 0.06 | 1009.99 ± 0.06
m1 = 1.175 | 1027.62 ± 0.07 | 1025.68 ± 0.07 | 1023.8 ± 0.07
m1 = 2.103 | 1046.02 ± 0.09 | 1043.76 ± 0.09 | 1041.7 ± 0.09
m1 = 3.23 | 1063.98 ± 0.12 | 1061.54 ± 0.12 | 1058.92 ± 0.12
m1 = 4.772 | 1082.55 ± 0.15 | 1079.86 ± 0.15 | 1077.08 ± 0.15
m1 = 5.992 | 1093.61 ± 0.18 | 1090.78 ± 0.17 | 1087.9 ± 0.17
m1 = 7.003 | 1101.22 ± 0.19 | 1098.33 ± 0.19 | 1095.39 ± 0.19

CCC[n+]1ccn(CC(=O)O)c1.[Cl-] [1-(carboxymethyl)-3-propylimidazolium chloride] + O
mass density [kg/m3]
Details | m1 = 0.0302 | m1 = 0.0505 | m1 = 0.1021 | m1 = 0.2084 | m1 = 0.5569 | m1 = 1.257 | m1 = 2.166 | m1 = 3.386 | m1 = 5.114 | m1 = 7.768
293.15 K | 999.68 ± 0.1 | 1000.6 ± 0.1 | 1002.96 ± 0.1 | 1007.61 ± 0.11 | 1021.7 ± 0.11 | 1046.14 ± 0.11 | 1071.45 ± 0.12 | 1097.44 ± 0.14 | 1123.69 ± 0.17 | 1150.29 ± 0.2
298.15 K | 998.52 ± 0.1 | 999.44 ± 0.1 | 1001.71 ± 0.1 | 1006.08 ± 0.11 | 1019.83 ± 0.11 | 1044.05 ± 0.11 | 1069.11 ± 0.12 | 1094.76 ± 0.14 | 1120.74 ± 0.17 | 1147.15 ± 0.2
303.15 K | 997.01 ± 0.11 | 998 ± 0.1 | 1000.1 ± 0.1 | 1004.64 ± 0.11 | 1018.22 ± 0.11 | 1041.75 ± 0.11 | 1066.6 ± 0.12 | 1091.97 ± 0.14 | 1117.73 ± 0.17 | 1143.97 ± 0.2

C[n+]1ccn(CC(=O)O)c1.[Cl-] [1-carboxymethyl-3-methylimidazolium chloride] + O
mass density [kg/m3]
Details | m1 = 0.0302 | m1 = 0.0505 | m1 = 0.1018 | m1 = 0.2072 | m1 = 0.5443 | m1 = 1.214 | m1 = 2.041 | m1 = 3.094 | m1 = 4.466 | m1 = 6.375
293.15 K | 999.87 ± 0.1 | 1000.94 ± 0.1 | 1003.6 ± 0.11 | 1008.87 ± 0.11 | 1024.61 ± 0.11 | 1052.15 ± 0.11 | 1080.57 ± 0.12 | 1110.21 ± 0.14 | 1140.75 ± 0.16 | 1173 ± 0.19
298.15 K | 998.71 ± 0.11 | 999.76 ± 0.1 | 1002.36 ± 0.1 | 1007.5 ± 0.11 | 1022.95 ± 0.11 | 1050.32 ± 0.11 | 1078.44 ± 0.12 | 1107.83 ± 0.14 | 1138.14 ± 0.16 | 1170.21 ± 0.19
303.15 K | 997.12 ± 0.11 | 998.24 ± 0.1 | 1000.9 ± 0.1 | 1006.06 ± 0.11 | 1021.26 ± 0.11 | 1048.33 ± 0.11 | 1076.13 ± 0.12 | 1105.34 ± 0.14 | 1135.4 ± 0.16 | 1167.36 ± 0.19

— the NIST ThermoML archive (doi:10.1021/je400310h)
